Results: patent US8951997B2, “Substituted isoquinoline derivative” (D. Western Therapeutics Institute, Inc., priority 2009, dated 2015)
Structures can show the parent of a compound that is named as a salt.

Key:
[1] = test system: mouse model of spinal cord injury; assay: Motor function recovering effect on a spinal cord injury model of the mouse; format: in vivo; conditions: C57BL/6Cr mice, 3 mg/kg intraperitoneal once a day for 7 days, day 14 after operation, score 0 normal to 72 most serious, saline group 41
Experimental: To examine the usefulness of the compound of the present invention as a therapeutic agent for spinal cord injury, the mouse model of spinal cord injury was prepared and a motor function recovering effect after spinal cord injury was investigated.
Example 14 as a test compound was dissolved in saline and diluted to prepare a test compound solution with a predetermined concentration.
C57BL/6Cr mice (female, body weight: around 19 g, 6 to 8 […] per group) were anesthetized by halothane inhalation. The spinal cord at the level of the eighth thoracic vertebrae was compressed with 20 g of weight for 5 minutes to prepare a spinal cord injury model, according to the method described in the document (Acta Neuropathol. 100, 13-22 (2000)). The test compound was intraperitoneally administered at a dose of 3 mg/kg once a day for 7 consecutive days from the surgery day. After 1, 4, 7, 10, and 14 days from the preparation of the spinal cord injury model, the severity of neurological dysfunction was scored by a partial modification of the performance score described in J. Neurosurg. 93 (Spine 1), 94-101(2000). The details of the behavioral score are as follows:
Open field locomotion (rated 0 to 42)
Toe spread (rated 0 to 5)
Contact place response (rated 0 to 5)
Withdrawal reflexes (rated 0 to 5 for each reflex to extension, pain, and pressure stimulations)
Righting reflex (rated 0 to 5) […]

[2] = test system: rabbits (New Zealand White); assay: Ocular hypotensive effect in rabbits; format: in vivo, rabbit; conditions: Oryctolagus cuniculus, topical, 0.04 mL dropped to one eye, vehicle to contralateral eye, test compound solution concentration 10 (W/V), read-out: Maximum ocular hypotensive rate
Experimental: The compound of the present invention was administered to rabbits (New Zealand White, sex: male, 3 to 7 per group) and evaluated for its ocular hypotensive effect.
Each test compound was dissolved in a vehicle (1.04 g of sodium dihydrogen phosphate dihydrate and 0.5 g of sodium chloride dissolved in purified water and then adjusted to pH 7.0 with sodium hydroxide to make the total amount to 100 mL) to prepare a test compound solution with a concentration of 10 (W/V).
The intraocular pressures of the rabbits were measured using Tiolat TonoVet handheld tonometer immediately before administration of test compound. The test compound solution and the vehicle were dropped at a volume of 0.04 mL to one eye and the contralateral eye, respectively, and the intraocular pressures were measured over time in the same way as above. The rate of the intraocular pressure of the eye receiving the test compound solution to that of the eye receiving the vehicle was calculated as an ocular hypotensive rate.

For `C[C@@H]1CNCCCCN1S(=O)(=O)c1ccc2cnccc2c1` [Example 14, (R)-6-(2-methyl-1,4-diazocan-1-ylsulfonyl)isoquinoline dihydrochloride], which neurological dysfunction score [1] is on record?
Its neurological dysfunction score is 33.

And the inhibition in vivo at 10 % [2]?
Its inhibition in vivo at 10 % is no less than 15%.
